Source: US11753411B2, “Substituted pyrazolo[1,5-a]pyrimidines as TYK2 pseudokinase ligands” (Ventyx Biosciences, Inc., priority 2019, dated 2023)

Assays:
[1] = Rat pharmacokinetics (PK); assay type: in vivo; settings: rat, plasma, IV group and PO group, route of the Cmax not given, urea versus corresponding amide, read-out: Cmax
Description: Rat PK experiments were performed with an IV group and PO group included, with 3 rats per group. The formulation was solution for IV group and either solution or suspension formulation for the oral group(s). Plasma samples were harvested with K2EDTA as anticoagulant at 0.08, 0.25, 0.5, 1, 2, 4, 8, 12 and 24 hours for the IV group and at 0.25, 0.5, 1, 2, 4, 6, 8, 12 and 24 hours for the PO group, and analyzed by fit for purpose LC-MS/MS method. Non-compartmental analysis module in Phoenix WinNonlin® (Version 8.0) was used to assess the pharmacokinetic parameters. Maximum concentration (Cmax) were taken from the observed values.

[2] = Human liver microsome stability assay; assay type: in vitro ADME; settings: 0.5 mg/mL human liver microsomes, 37° C., pH 7.4; urea versus corresponding amide
Description: The microsome stability assay was carried out in 96-well microtiter plates at 37° C. Reaction mixtures (25 μL) contained a final concentration of 1 µM test compound, 0.5 mg/mL human liver microsomes protein, and 1 mM NADPH and/or 1 mM UDPGA (with alamethicin) in 100 mM potassium phosphate, pH 7.4 buffer with 3 mM MgCl2. At each of the time points (for example, 0, 15, 30, and 60 minutes), 150 μL of quench solution (100% acetonitrile with 0.1% formic acid) with internal standard was transferred to each well. Besides the zero minute controls, mixtures containing the same components except the NADPH were also prepared as the negative control. Verapamil was included as a positive control to verify assay performance. Plates were sealed, vortexed, and centrifuged at 4° C. for 15 minutes at 4000 rpm. The supernatant was transferred to fresh plates for LC/MS/MS analysis. Comparison data for microsome stability of urea compounds described herein versus the corresponding amide compounds are shown in Table 1.

IFN-a/Jak1 Tyk2 = experiment: Co-stimulation assay in lysed whole blood: IFNa (JAK1/TYK2) stimulated STAT1 phosphorylation; assay type: cell-based; settings: 100 ng/mL IFNa (with 10 ng/mL GM-CSF), pSTAT by flow cytometry
Procedure, shortened: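 Lysed human whole blood (RBC-lysed, resuspended in cRPMI) pre-incubated with compound 1 h at 37 °C, then stimulated 20 min with IFNa 100 ng/mL plus GM-CSF 10 ng/mL (final). Fixed, permeabilised, stained for pSTAT1 (PE) and pSTAT5 (AF488); flow cytometry read-out, ≥5,000–10,000 cells acquired.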

IC50 (IFN-a/Jak1 Tyk2; Homo sapiens, 20 min) [nM] | SMILES | also measured
– | CNc1cc(Nc2cccc3c2OCCO3)nc2c(C(=O)NC3CCC3)cnn12 [reference compound] | Cmax [1]: 1900 ng/mL
– | CNc1cc(Nc2cccc3c2OCCO3)nc2c(C(=O)N[C@@H]3C[C@@H]3F)cnn12 [reference compound] | Cmax [1]: 400 ng/mL
– | CNc1cc(Nc2cccc3c2OCCO3)nc2c(NC(=O)N[C@@H]3C[C@@H]3F)cnn12 [drawing 285] | Cmax [1]: 1690 ng/mL
– | CNC(=O)c1cnn2c(NC)cc(Nc3cc(F)cc4c3OCCO4)nc12 [reference compound] | half-life [2]: < 0.833 h
– | CNc1cc(Nc2cc(F)cc3c2OCCO3)nc2c(NC(=O)N[C@@H]3C[C@@H]3F)cnn12 [drawing 279] | half-life [2]: > 2 h
– | CNc1cc(Nc2cccc3c2OCCO3)nc2c(NC(=O)NC3CC3)cnn12 [drawing 277] | half-life [2]: > 2 h
– | CNc1cc(Nc2cccc3c2OCCO3)nc2c(C(=O)NC3CC(O)C3)cnn12 (centres unmarked) [reference compound] | half-life [2]: 0.3 h
– | CNc1cc(Nc2cccc3c2OCCO3)nc2c(NC(=O)NC3CC(O)C3)cnn12 (centres unmarked) [drawing 281] | half-life [2]: > 2 h
– | CNC(=O)Nc1cnn2c(NC)cc(Nc3cc(F)cc4c3OCCO4)nc12 [drawing 283] | half-life [2]: > 2 h
– | CNc1cc(Nc2cc(F)cc3c2OCCO3)nc2c(C(=O)N[C@@H]3C[C@@H]3F)cnn12 [drawing 280, reference compound] | half-life [2]: 1 h
– | CNc1cc(Nc2cccc3c2OCCO3)nc2c(C(=O)NC3CC3)cnn12 [drawing 290, reference compound] | Cmax [1]: 400 ng/mL
– | CNC(=O)Nc1cnn2c(NC)cc(Nc3cc(C)cc(C)c3)nc12 [drawing 291] | Cmax [1]: 915 ng/mL
– | CNc1cc(Nc2cccc3c2OCCO3)nc2c(C(=O)NC3CC3)cnn12 [drawing 278, reference compound] | half-life [2]: 0.317 h
1000 to 10000 | CNC(=O)Nc1cnn2c(NC)cc(Nc3c(F)cccc3F)nc12 [Compound 90, 1-(5-((2,6-difluorophenyl)amino)-7-(methylamino)pyrazolo[1,5-a]pyrimidin-3-yl)-3-methylurea] | –
< 1000 | CNc1cc(Nc2cccc3c2OCCO3)nc2c(NC(=O)NC3CC(F)C3)cnn12 (centres unmarked) [Compound 35, 1-(5-((2,3-dihydrobenzo[b][1,4]dioxin-5-yl)amino)-7-(methylamino)pyrazolo[1,5-a]pyrimidin-3-yl)-3-(3-fluorocyclobutyl)urea] | –
< 1000 | CNc1cc(Nc2cc(F)cc3c2OCCO3)nc2c(NC(=O)NC(C)C#N)cnn12 (centres unmarked) [Compound 120, 1-(1-cyanoethyl)-3-(5-((7-fluoro-2,3-dihydrobenzo[b][1,4]dioxin-5-yl)amino)-7-(methylamino)pyrazolo[1,5-a]pyrimidin-3-yl)urea] | –

IC50 (IFN-a/Jak1 Tyk2; Homo sapiens, 20 min) [nM] | SMILES | also measured
< 1000 | C#Cc1cc(Nc2cc(NC)n3ncc(NC(=O)NC)c3n2)c2c(c1)OCCO2 [Compound 109, 1-(5-((7-ethynyl-2,3-dihydrobenzo[b][1,4]dioxin-5-yl)amino)-7-(methylamino)pyrazolo[1,5-a]pyrimidin-3-yl)-3-methylurea] | –
< 1000 | CNc1cc(Nc2cc(F)cc3c2OCCO3)nc2c(NC(=O)N[C@H]3C[C@@H]3F)cnn12 [Compound 41, 1-(5-((7-fluoro-2,3-dihydrobenzo[b][1,4]dioxin-5-yl)amino)-7-(methylamino)pyrazolo[1,5-a]pyrimidin-3-yl)-3-((1S,2S)-2-fluorocyclopropyl)urea] | –
1000 to 10000 | CNc1cc(Nc2cccc3c2OCCO3)nc2c(NC(=O)NCC(F)F)cnn12 [Compound 134, 1-(2,2-difluoroethyl)-3-(5-((2,3-dihydrobenzo[b][1,4]dioxin-5-yl)amino)-7-(methylamino)pyrazolo[1,5-a]pyrimidin-3-yl)urea] | –
< 1000 | CNC(=O)Nc1cnn2c(NC)cc(Nc3cccc4c3OCO4)nc12 [Compound 153, 1-(5-(benzo[d][1,3]dioxol-4-ylamino)-7-(methylamino)pyrazolo[1,5-a]pyrimidin-3-yl)-3-methylurea] | –
1000 to 10000 | CNc1cc(Nc2cccc3c2OCCO3)nc2c(NC(=O)NCC(C)(C)CO)cnn12 [Compound 141, 1-(5-((2,3-dihydrobenzo[b][1,4]dioxin-5-yl)amino)-7-(methylamino)pyrazolo[1,5-a]pyrimidin-3-yl)-3-(3-hydroxy-2,2-dimethylpropyl)urea] | –
≥ 10000 | CNc1cc(Nc2cccc3c2OCCO3)nc2c(NC(=O)N(C)C)cnn12 [Compound 140, 3-(5-((2,3-dihydrobenzo[b][1,4]dioxin-5-yl)amino)-7-(methylamino)pyrazolo[1,5-a]pyrimidin-3-yl)-1,1-dimethylurea] | –
1000 to 10000 | CNc1cc(Nc2cccc3c2OCCO3)nc2c(NC(=O)NC3CC(O)C3)cnn12 (centres unmarked) [Compound 29, 1-(5-((2,3-dihydrobenzo[b][1,4]dioxin-5-yl)amino)-7-(methylamino)pyrazolo[1,5-a]pyrimidin-3-yl)-3-(3-hydroxycylcobutyl)urea] | –
– | CNc1cc(Nc2c(F)ccc3c2OCCO3)nc2c(NC(=O)NCC#N)cnn12 [Compound 136, 1-(cyanomethyl)-3-(5-((6-fluoro-2,3-dihydrobenzo[b][1,4]dioxin-5-yl)amino)-7-(methylamino)pyrazolo[1,5-a]pyrimidin-3-yl)urea] | IC50 (IFN-a/Jak1 Tyk2; lysed human whole blood, 20 minutes): 1000 to 10000 nM
< 1000 | CNc1cc(Nc2cccc3c2OCCO3)nc2c(NC(=O)N[C@H](C)C#N)cnn12 [Compound 122, (R)-1-(1-cyanoethyl)-3-(5-((2,3-dihydrobenzo[b][1,4]dioxin-5-yl)amino)-7-(methylamino)pyrazolo[1,5-a]pyrimidin-3-yl)urea] | –
≥ 10000 | CNC(=O)Nc1cnn2c(NC)cc(N(C)c3ccccc3)nc12 [Compound 159, 1-methyl-3-(5-(methyl(phenyl)amino)-7-(methylamino)pyrazolo[1,5-a]pyrimidin-3-yl)urea] | –
< 1000 | CNc1cc(Nc2cccc3c2OCCO3)nc2c(NC(=O)NC3CC(C#N)C3)cnn12 (centres unmarked) [Compound 27, 1-(3-cyanocyclobutyl)-3-(5-((2,3-dihydrobenzo[b][1,4]dioxin-5-yl)amino)-7-(methylamino)pyrazolo[1,5-a]pyrimidin-3-yl)urea] | –
< 1000 | CNc1cc(Nc2cccc3c2OCCO3)nc2c(NC(=O)N[C@@H](C)C#N)cnn12 [Compound 121, (S)-1-(1-cyanoethyl)-3-(5-((2,3-dihydrobenzo[b][1,4]dioxin-5-yl)amino)-7-(methylamino)pyrazolo[1,5-a]pyrimidin-3-yl)urea] | –
< 1000 | CNc1cc(Nc2cccc3c2OCCC3=O)nc2c(NC(=O)N[C@@H]3C[C@@H]3F)cnn12 [Compound 183, 1-((1R,2S)-2-fluorocyclopropyl)-3-(7-(methylamino)-5-((4-oxochroman-8-yl)amino)pyrazolo[1,5-a]pyrimidin-3-yl)urea] | –
< 1000 | CNc1cc(-c2cn(C(C)C)c3ncccc23)nc2c(NC(=O)NCC#N)cnn12 [Compound 130, 1-(cyanomethyl)-3-(5-(1-isopropyl-1H-pyrrolo[2,3-b]pyridin-3-yl)-7-(methylamino)pyrazolo[1,5-a]pyrimidin-3-yl)urea] | –
< 1000 | CNC(=O)Nc1cnn2c(NC)cc(-c3cn(C(C)C)c4ncccc34)nc12 [Compound 72, 1-(5-(1-isopropyl-1H-pyrrolo[2,3-b]pyridin-3-yl)-7-(methylamino)pyrazolo[1,5-a]pyrimidin-3-yl)-3-methylurea] | –
1000 to 10000 | CNC(=O)Nc1cnn2c(NC)cc(Nc3ccccc3)nc12 [Compound 146, 1-methyl-3-(7-(methylamino)-5-(phenylamino)pyrazolo[1,5-a]pyrimidin-3-yl)urea] | –
